According to paper PMC3063099 (Xenobiotica; the fate of foreign compounds in biological …, 2010):
Where two headings read alike, the source gives them in different places.

Experiments:
CYP3A4 mutant F213W [1] = biological target: T1, CYP3A4 mutant F213W (Homo sapiens, UniProt P08684, F213W); assay: Absorbance titration, substrate-induced spin shift; conditions: for nH (Hill coefficient): Hill equation fit; for Kd: human, pH 7.4
[2] = biological target: T2, CYP3A4 mutant L211F/D214E (Homo sapiens, UniProt P08684, D214E/L211F); conditions: pH 7.4
T2 sequence (P08684 whole entry L211F/D214E): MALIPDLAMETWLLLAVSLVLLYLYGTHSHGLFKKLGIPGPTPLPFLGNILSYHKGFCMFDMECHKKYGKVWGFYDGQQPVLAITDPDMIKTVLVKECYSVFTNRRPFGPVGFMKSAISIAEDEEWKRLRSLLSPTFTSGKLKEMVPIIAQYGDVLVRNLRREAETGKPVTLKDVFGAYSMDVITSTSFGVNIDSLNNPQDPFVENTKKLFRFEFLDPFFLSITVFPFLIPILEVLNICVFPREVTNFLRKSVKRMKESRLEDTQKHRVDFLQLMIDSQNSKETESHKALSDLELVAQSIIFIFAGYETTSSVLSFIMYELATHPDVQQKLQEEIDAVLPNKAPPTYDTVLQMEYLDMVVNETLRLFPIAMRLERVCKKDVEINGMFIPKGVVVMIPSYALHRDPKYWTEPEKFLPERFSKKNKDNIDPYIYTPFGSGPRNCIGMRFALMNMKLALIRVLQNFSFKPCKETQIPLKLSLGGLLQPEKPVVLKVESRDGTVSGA

CYP3A4 wild type [3] = biological target: T3, CYP3A4 wild type (Homo sapiens, UniProt P08684); conditions: pH 7.4
T3 sequence (P08684 whole entry): as the sequence (P08684 whole entry L211F/D214E) above, with F211L, E214D counted along it

CYP3A4 mutant F304W [4] = biological target: T4, CYP3A4 mutant F304W (Homo sapiens, UniProt P08684, F304W); assay: Absorbance titration, substrate-induced spin shift; conditions: for nH (Hill coefficient): Hill equation fit; for Kd: human, pH 7.4
T4 sequence (P08684 whole entry F304W): as the sequence (P08684 whole entry L211F/D214E) above, with F211L, E214D, F304W counted along it

[5] = biological target: T2, CYP3A4 mutant L211F/D214E; assay: Absorbance titration, substrate-induced spin shift; conditions: for nH (Hill coefficient): Hill equation fit; for Kd: human, pH 7.4
CYP3A4 mutant F213W [6] = biological target: T1, CYP3A4 mutant F213W; conditions: pH 7.4
CYP3A4 wild type [7] = biological target: T3, CYP3A4 wild type; assay: Absorbance titration, substrate-induced spin shift; conditions: for Kd: human, pH 7.4; for nH (Hill coefficient): Hill equation fit
CYP3A4 mutant F304W [8] = biological target: T4, CYP3A4 mutant F304W; conditions: pH 7.4
CYP3A4 mutant F304W [9] = biological target: T4, CYP3A4 mutant F304W; assay: Titration-by-dilution monitored by FRET; format: binding; conditions: for Efficiency of FRET: F304W
CYP3A4 mutant F213W [10] = biological target: T1, CYP3A4 mutant F213W; assay: Titration-by-dilution monitored by FRET; format: binding; conditions: for Efficiency of FRET: F213W
CYP3A4 wild type [11] = biological target: T3, CYP3A4 wild type; assay: Titration-by-dilution at excess substrate monitored by spin shift; format: binding
CYP3A4 mutant F213W [12] = biological target: T1, CYP3A4 mutant F213W; assay: as above; format: binding
[13] = biological target: T2, CYP3A4 mutant L211F/D214E; assay: as above; format: binding
CYP3A4 wild type [14] = biological target: T3, CYP3A4 wild type; assay: Titration-by-dilution monitored by FRET; format: binding; conditions: for Efficiency of FRET: wild type
CYP3A4 mutant F304W [15] = biological target: T4, CYP3A4 mutant F304W; assay: Titration-by-dilution at excess substrate monitored by spin shift; format: binding
[16] = biological target: T2, CYP3A4 mutant L211F/D214E; assay: Titration-by-dilution monitored by FRET; format: binding; conditions: for Efficiency of FRET: L211F/D214E
[17] = equimolar enzyme-substrate mixture
[18] = human, CYP3A4 wild type enzyme in buffer, pH 7.4

T1 sequence (P08684 whole entry F213W): as the sequence (P08684 whole entry L211F/D214E) above, with F211L, F213W, E214D counted along it

Compound: O=c1cc(-c2ccccc2)oc2c1ccc1ccccc12 [ANF, α-naphthoflavone]
- nH (Hill coefficient) (CYP3A4 mutant F213W [1]; F213W, pH 7.4, 25 °C): 1.52 ± 0.30
- Kd (CYP3A4 mutant F213W [1]; CYP3A4 mutant F213W enzyme in buffer): 3.5 ± 1.36 µM
- Δhmax, amplitude of the substrate-induced spin shift [2]: 27.9 ± 2.2%
- Δhmax, amplitude of the substrate-induced spin shift (CYP3A4 wild type [3]): 40.0 ± 2.5%
- nH (Hill coefficient) (CYP3A4 mutant F304W [4]; F304W, pH 7.4, 25 °C): 2.10 ± 0.20
- Kd (CYP3A4 mutant F304W [4]; CYP3A4 mutant F304W enzyme in buffer): 3.63 ± 1.46 µM
- nH (Hill coefficient) ([5]; L211F/D214E, pH 7.4, 25 °C): 1.68 ± 0.16
- Kd ([5]; CYP3A4 mutant L211F/D214E enzyme in buffer): 3.67 ± 1.16 µM
- Δhmax, amplitude of the substrate-induced spin shift (CYP3A4 mutant F213W [6]): 33.5 ± 2.1%
- Kd (CYP3A4 wild type [7]; CYP3A4 wild type enzyme in buffer): 3.66 ± 0.7 µM
- nH (Hill coefficient) (CYP3A4 wild type [7]; wild type, pH 7.4, 25 °C): 2.04 ± 0.30
- Δhmax, amplitude of the substrate-induced spin shift (CYP3A4 mutant F304W [8]): 36.0 ± 5.2%

Compound: OCCCCc1ccc2ccc3cccc4ccc1c2c34 [1-PB, 1-pyrenebutanol]
- Efficiency of FRET (CYP3A4 mutant F304W [9]; [17]): 99.6 ± 7.8%
- Efficiency of FRET (CYP3A4 mutant F304W [9]; excess substrate (1:6)): 109.0 ± 1.6%
- Kd (CYP3A4 mutant F304W [9]; KD1, F304W, equimolar enzyme-substrate mixture, FRET, 0.6 mg/ml HPCD): 0.26 ± 0.08 µM
- nH (Hill coefficient) (CYP3A4 mutant F213W [1]; F213W, pH 7.4, 25 °C): 1.07 ± 0.16
- nH (Hill coefficient) (CYP3A4 mutant F213W [1]; F213W, pH 7.4, 25 °C, listed as 1-pyrenebutanol): ≤ 1.1
- Δhmax, amplitude of the substrate-induced spin shift (CYP3A4 mutant F213W [1]; F213W, absorbance titration, pH 7.4, 25 °C): 57.0 ± 5.9%
- FES, fraction of total spin shift caused by the binary complex ES (CYP3A4 mutant F213W [1]; F213W, fit to improved sequential model, KD1 fixed): 7.9 ±1.0%
- Kd (CYP3A4 mutant F213W [1]; 0.1 m na-hepes): 12.6 ± 4.6 µM
- Efficiency of FRET (CYP3A4 mutant F213W [10]; [17]): 80.8 ± 26.4%
- Efficiency of FRET (CYP3A4 mutant F213W [10]; excess substrate (1:5)): 109.0 ± 2.0%
- Kd (CYP3A4 mutant F213W [10]; KD1, F213W, equimolar enzyme-substrate mixture, FRET, 0.6 mg/ml HPCD): 0.07 ± 0.04 µM
- Kd (CYP3A4 wild type [11]; [18]): 10.2 ± 1.2 µM
- Δhmax, maximal amplitude of the spin shift deduced from fitting (CYP3A4 wild type [11]; wild type, dilution at excess substrate (1:5)): 49.7 ± 7.3%
- Δhmax, maximal amplitude of the spin shift deduced from fitting (CYP3A4 mutant F213W [12]; F213W, dilution at excess substrate (1:5)): 40.0 ± 16%
- Kd (CYP3A4 mutant F213W [12]; human, CYP3A4 mutant F213W enzyme in buffer, pH 7.4): 14.4 ± 1.5 µM
- Δhmax, maximal amplitude of the spin shift deduced from fitting ([13]; L211F/D214E, dilution at excess substrate (1:5)): 18.2 ± 7.1%
- Kd ([13]; human, CYP3A4 mutant L211F/D214E enzyme in buffer, pH 7.4): 7.3 ± 2.9 µM
- Kd (CYP3A4 wild type [14]): 0.25 ± 0.11 µM
- Kd (CYP3A4 wild type [14]; [18]): 5 ± 1.1 µM
- Efficiency of FRET (CYP3A4 wild type [14]; [17]): 95.2 ± 5.7%
- Efficiency of FRET (CYP3A4 wild type [14]; excess substrate (1:4)): 108.0 ± 1.2%
- Δhmax, maximal amplitude of the spin shift deduced from fitting (CYP3A4 mutant F304W [15]; F304W, dilution at excess substrate (1:5)): 23.2 ± 14.0%
- Kd (CYP3A4 mutant F304W [15]; human, CYP3A4 mutant F304W enzyme in buffer, pH 7.4): 11.4 ± 1.1 µM
- nH (Hill coefficient) (CYP3A4 mutant F304W [4]; F304W, pH 7.4, 25 °C): 1.07 ± 0.12
- nH (Hill coefficient) (CYP3A4 mutant F304W [4]; F304W, pH 7.4, 25 °C, listed as 1-pyrenebutanol): ≤ 1.1
- Δhmax, amplitude of the substrate-induced spin shift (CYP3A4 mutant F304W [4]; F304W, absorbance titration, pH 7.4, 25 °C): 57.7 ± 5.6%
- FES, fraction of total spin shift caused by the binary complex ES (CYP3A4 mutant F304W [4]; F304W, fit to improved sequential model, KD1 fixed): 15.1 ± 0.8%
- Kd (CYP3A4 mutant F304W [4]; 0.1 m na-hepes): 10.7 ± 2 µM
- nH (Hill coefficient) ([5]; L211F/D214E, pH 7.4, 25 °C): 1.07 ± 0.17
- nH (Hill coefficient) ([5]; L211F/D214E, pH 7.4, 25 °C, listed as 1-pyrenebutanol): ≤ 1.1
- Δhmax, amplitude of the substrate-induced spin shift ([5]; L211F/D214E, absorbance titration, pH 7.4, 25 °C): 39.4 ± 5.1%
- FES, fraction of total spin shift caused by the binary complex ES ([5]; L211F/D214E, fit to improved sequential model, KD1 fixed): 21.0 ± 5.7%
- Kd ([5]; 0.1 m na-hepes): 12.1 ± 1.8 µM
- Kd ([16]; KD1, L211F/D214E, equimolar enzyme-substrate mixture, FRET, 0.6 mg/ml HPCD): 0.82 ± 0.43 µM
- Efficiency of FRET [16, 17]: 108.4 ± 12.9%
- Efficiency of FRET ([16]; excess substrate (1:6)): 83.4 ± 16.4%
- Kd (CYP3A4 wild type [7]; 0.1 m na-hepes): 11.7 ± 2.4 µM
- Kd (CYP3A4 wild type [7]): 12.6 µM
- nH (Hill coefficient) (CYP3A4 wild type [7]; wild type, pH 7.4, 25 °C): 1.67 ± 0.18
- nH (Hill coefficient) (CYP3A4 wild type [7]; wild type, pH 7.4, 25 °C, listed as 1-pyrenebutanol): around 1.7
- Δhmax, amplitude of the substrate-induced spin shift (CYP3A4 wild type [7]; wild type, absorbance titration, pH 7.4, 25 °C): 46.7 ± 4.9%
- FES, fraction of total spin shift caused by the binary complex ES (CYP3A4 wild type [7]; wild type, fit to improved sequential model): 0
